Results reported in patent US20050256309A1, “Tri-and bi-cyclic heteroaryl histamine-3 receptor ligands” (priority 2004, published 2005).
Structures can show the parent of a compound that is named as a salt.

melting point: 182 to 183 °C
SMILES: Cc1nc2cc(-c3ccc4nc(CCN5CCC[C@H]5C)ccc4c3)ccc2s1 (as salt: hydrochloride) [Example 14, 6-(2-Methyl-benzothiazol-5-yl)-2-[2-(2R-methyl-pyrrolidin-1-yl)-ethyl]-quinoline]
